Reference: patent US7576094B2, “Spiro derivatives as lipoxygenase inhibitors” (Eli Lilly and Company, priority 2004, dated 2009)

target: T1, human recombinant 5-Lipoxygenase (Homo sapiens, UniProt P09917); experiment: 5-Lipoxygenase Enzyme Assay; assay type: biochemical; details: 70 μM arachidonic acid, 10 minute incubation at room temperature, FOX reagent, absorbance at 620 nm; read-out: inhibition of 5-Lipoxygenase with an IC50
T1 sequence (P09917 1-674): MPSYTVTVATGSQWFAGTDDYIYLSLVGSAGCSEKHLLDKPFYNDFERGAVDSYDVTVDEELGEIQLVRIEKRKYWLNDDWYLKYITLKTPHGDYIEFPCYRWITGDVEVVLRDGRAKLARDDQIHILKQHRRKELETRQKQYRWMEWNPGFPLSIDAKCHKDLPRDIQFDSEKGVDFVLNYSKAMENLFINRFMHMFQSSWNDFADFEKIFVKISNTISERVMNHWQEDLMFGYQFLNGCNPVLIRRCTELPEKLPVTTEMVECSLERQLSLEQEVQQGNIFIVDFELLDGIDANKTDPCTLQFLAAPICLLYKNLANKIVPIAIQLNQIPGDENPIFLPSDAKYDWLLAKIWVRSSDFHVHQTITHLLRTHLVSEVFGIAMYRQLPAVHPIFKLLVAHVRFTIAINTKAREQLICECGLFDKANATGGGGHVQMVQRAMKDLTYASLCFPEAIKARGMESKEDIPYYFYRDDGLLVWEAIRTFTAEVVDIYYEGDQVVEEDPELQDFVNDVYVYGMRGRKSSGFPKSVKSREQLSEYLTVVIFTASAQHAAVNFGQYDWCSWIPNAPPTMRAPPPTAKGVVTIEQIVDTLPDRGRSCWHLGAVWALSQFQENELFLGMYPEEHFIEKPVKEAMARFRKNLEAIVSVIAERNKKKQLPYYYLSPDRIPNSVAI
Text: This procedure was used for measuring the enzymatic activity of human recombinant 5-Lipoxygenase using a colorimetric method based on the ferric oxidation of xylenol orange.
• 96 well flat bottom microfilter plates (VWR, Catalog # 62402-933 9295) • Lipoxygenase screening assay buffer (Cayman, Catalog # 760710) • Human recombinant 5-Lipoxygenase (Cayman, Catalog # 60402) • Arachidonic Acid (Sigma, Catalog # A3555) • Xylenol orange tetra sodium salt (Aldrich, Catalog # 227854) • Iron (II) sulfate heptahydrate (Sigma, Catalog # F7002) • Sulfuric acid (95-98%) [18 M] • Methanol Procedure
Human recombinant 5-Lipoxygenase (Cayman Cat # 60402) was used in this assay. The test compound and/or vehicle was added to 0.5 μL 5-Lipoxygenase in 50 mM Tris-HCl buffer, pH 7.4. The reaction was initiated by addition of 70 μM arachidonic acid in Tris-HCl buffer, pH 7.4, and terminated after a 10 minute incubation at room temperature by addition of FOX reagent (25 mM sulfuric acid, 100 μM xylenol orange, 100 μM iron (II) sulfate, methanol:water 9:1). The yellow color of acidified xylenol orange was converted to a blue color by the lipid hydroperoxide-mediated oxidation of Fe^2+ ions and the interaction of the resulting Fe^3+ ions with the dye. The complex was allowed to form during a 1 hour incubation at room temperature with shaking. Absorbance of the Fe^3+ complex was then measured at […] using a spectrophotometer.
Negative controls contained enzyme during the incubation step but substrate was not added until after the FOX reagent. Compounds were screened at 5 concentrations in triplicate starting at 10 μM

| Compound | IC50 |
| --- | --- |
| CCO/N=C1\CC2(CCC2)Oc2cc(C)c(O)c(C)c21 [(4E)-6-hydroxy-5,7-dimethylspiro[chromene-2,1′-cyclobutan]-4(3H)-one O-ethyloxime] | < 0.3 µM |
| Cc1cc2c(c(C)c1O)C(OC(C)C)CC1(CCC1)O2 (stereo not drawn) [4-isopropoxy-5,7-dimethyl-3,4-dihydrospiro[chromene-2,1′-cyclobutan]-6-ol] | < 0.3 µM |
| CC(=O)NC1CC2(CCC2)Oc2c(C)c(C)c(O)c(C)c21 (stereo not drawn) [N-(6-hydroxy-5,7,8-trimethyl-3,4-dihydrospiro[chromene-2,1′-cyclobutan]-4-yl)acetamide] | < 0.3 µM |
| COCc1c(C)c(O)c(C)c2c1OC1(CCC1)CC2 [8-(methoxymethyl)-5,7-dimethyl-3,4-dihydrospiro[chromene-2,1′-cyclobutan]-6-ol] | < 0.3 µM |
| Cc1c(C)c2c(c(C)c1OC(=O)n1ccnc1)CCC1(CCC1)O2 [5,7,8-trimethyl-3,4-dihydrospiro[chromene-2,1′-cyclobutan]-6-yl 1H-imidazole-1-carboxylate] | < 0.3 µM |
| Cc1c(O)cc2c(c1C)N(c1ccc(N3CCNCC3)nc1)CC1(CCC1)C2 [7′,8′-dimethyl-1′-(6-(piperazin-1-yl)pyridin-3-yl)-2′,4′-dihydro-1′H-spiro[cyclobutane-1,3′-quinolin]-6′-ol] | < 0.3 µM |
| CCONC1CC2(CCC2)Oc2c(C)c(C)c(O)c(CC)c21 (stereo not drawn) [4-(ethoxyamino)-5-ethyl-7,8-dimethyl-3,4-dihydrospiro[chromene-2,1′-cyclobutan]-6-ol] | < 0.3 µM |
| Cc1c(C)c2c(c(C)c1O)C(CN)=CC1(CCC1)O2 [4-(aminomethyl)-5,7,8-trimethylspiro[chromene-2,1′-cyclobutan]-6-ol] | < 0.3 µM |
| Cc1cc2c(c(C)c1O)CCC1(CCC1)N2Cc1ccc(Cl)cc1 [1′-(4-chlorobenzyl)-5′,7′-dimethyl-3′,4′-dihydro-1′H-spiro[cyclobutane-1,2′-quinolin]-6′-ol] | < 0.3 µM |
| Cc1c(C)c2c(c(C)c1O)C(O)C1(CCC1)CN2c1ccc(Cl)cc1 (stereo not drawn) [1′-(4-chlorophenyl)-5′,7′,8′-trimethyl-2′,4′-dihydro-1′H-spiro[cyclobutane-1,3′-quinoline]-4′,6′-diol] | < 0.3 µM |
| CCCC(=O)NC1CC2(CCC2)Oc2c(C)c(C)c(O)c(C)c21 (stereo not drawn) [N-(6-hydroxy-5,7,8-trimethyl-3,4-dihydrospiro[chromene-2,1′-cyclobutan]-4-yl)butanamide] | < 0.3 µM |
| COC(=O)c1ccc(CN2c3cc(C)c(O)c(C)c3CCC23CCC3)cc1 [methyl 4-((6′-hydroxy-5′,7′-dimethyl-3′,4′-dihydro-1′H-spiro[cyclobutane-1,2′-quinoline]-1′-yl)methyl)benzoate] | < 0.3 µM |
| CONCc1c2c(c(C(C)C)c(O)c1C(C)C)CCC1(CCC1)O2 [5,7-diisopropyl-8-[(methoxyamino)methyl] 3,4-dihydrospiro[chromene-2,1′-cyclobutan]-6-ol] | < 0.3 µM |
| Cc1c(O)cc(C(C)C)c2c1CCC1(CCC1)O2 [8-isopropyl-5-methyl-3,4-dihydrospiro[chromene-2,1′-cyclobutan]-6-ol] | < 0.3 µM |
| CCc1c(O)c(C)c(C)c2c1C(NOC)CC1(CCC1)O2 (stereo not drawn) [5-ethyl-4-(methoxyamino)-7,8-dimethyl-3,4-dihydrospiro[chromene-2,1′-cyclobutan]-6-ol] | < 0.3 µM |
| Cc1c(C)c2c(c(C)c1OC(=O)CN(C)C)CCC1(CCC1)O2 [5,7,8-trimethyl-3,4-dihydrospiro[chromene-2,1′-cyclobutan]-6-yl (dimethylamino)acetate] | < 0.3 µM |
| CCCc1ccc([S+](=O)([O-])NCCN2CC3(CCC3)Cc3cc(O)c(C)c(C)c32)cc1 [N-(2-(6′-hydroxy-7′,8′-dimethyl-2′,4′-dihydro-1′H-spiro[cyclobutane-1,3′-quinoline]-1′-yl)ethyl)-4-propylbenzenesulfonamide] | < 0.3 µM |
| CCONC1CC2(CCC2)Oc2cc(CC)c(O)c(CC)c21 (stereo not drawn) [4-(ethoxyamino)-5,7-diethyl-3,4-dihydrospiro[chromene-2,1′-cyclobutan]-6-ol] | < 0.3 µM |
| CC(C)c1c(O)c(C(C)C)c2c(c1C=O)OC1(CCC1)CC2 [6-hydroxy-5,7-diisopropyl-3,4-dihydrospiro[chromene-2,1′-cyclobutane]-8-carbaldehyde] | < 0.3 µM |
| Cc1c(C)c2c(c(C)c1OC(=O)CN(C)C)CCC1(CCC1)S2 [5′,7′,8′-trimethyl-3′,4′-dihydrospiro[cyclobutane-1,2′-thiochromen]-6′-yl (dimethylamino)acetate] | < 0.3 µM |
| CCc1cc2c(c(CC)c1O)C(O)C1(CCC1)CO2 (stereo not drawn) [5,7-diethylspiro[chroman-3,1′-cyclobutane]-4,6-diol] | < 0.3 µM |
| COC(=O)CN1CC2(CC2)Cc2cc(O)c(C)c(C)c21 [methyl 2-(6′-hydroxy-7′,8′-dimethyl-2′,4′-dihydro-1′H-spiro[cyclopropane-1,3′-quinoline]-1′-yl)acetate] | < 0.3 µM |
| Cc1c(O)cc2c(c1C)N(c1ccc(S(C)(=O)=O)cc1)CC1(CCC1)C2 [7′,8′-dimethyl-1′-(4-(methylsulfonyl)phenyl)-2′,4′-dihydro-1′H-spiro[cyclobutane-1,3′-quinolin]-6′-ol] | < 0.3 µM |
| CO/N=C1\CC2(CCC2)Oc2cc(C)c(O)c(C)c21 [6-hydroxy-5,7-dimethylspiro[chromene-2,1′-cyclobutan]-4(3H)-one O-methyloxime] | < 0.3 µM |
| CCO/N=C1/CC2(CCC2)Oc2cc(C)c(O)c(C)c21 [(4Z)-6-hydroxy-5,7-dimethylspiro[chromene-2,1′-cyclobutan]-4(3H)-one O-ethyloxime] | < 0.3 µM |
| CONC1CC2(CCC2)Oc2c(C)c(C)c(O)c(C)c21 (stereo not drawn) [4-(methoxyamino)-5,7,8-trimethyl-3,4-dihydrospiro[chromene-2,1′-cyclobutan]-6-ol] | < 0.3 µM |
| COC(=O)c1ccc(N2CC3(CCC3)Cc3cc(O)c(C)c(C)c32)cc1 [methyl 4-(6′-hydroxy-7′,8′-dimethyl-2′,4′-dihydro-1′H-spiro[cyclobutane-1,3′-quinoline]-1′-yl)benzoate] | < 0.3 µM |
| CON(C)C1CC2(CCC2)Oc2cc(C)c(O)c(C)c21 (stereo not drawn) [4-[methoxy(methyl)amino]-5,7-dimethyl-3,4-dihydrospiro[chromene-2,1′-cyclobutan]-6-ol] | < 0.3 µM |
| Cc1c2c(c(C)c(Cl)c1OC(=O)c1cccnc1)OC1(CCC1)CC2 [7-chloro-5,8-dimethyl-3,4-dihydrospiro[chromene-2,1′-cyclobutan]-6-yl nicotinate] | < 0.3 µM |
| Cc1c(O)cc2c(c1C)N(c1ccc(O)cc1)CC1(CCC1)C2 [1′-(4-hydroxyphenyl)-7′,8′-dimethyl-2′,4′-dihydro-1′H-spiro[cyclobutane-1,3′-quinolin]-6′-ol] | < 0.3 µM |
